The data set relates to CCRIS mutagenicity, Ames/micronucleus/aberration tests. As to the kind of experiment: CCRIS mutagenicity studies.

Molecules are shown by their SMILES. The source made the active and inactive calls. How the calls were made is not given here.

`COC=O`: the mutagenic call by setting is: (Test System: AMES SALMONELLA TYPHIMURIUM, Strain/Indicator: TA97, Metabolic Activation: HAMSTER, LIVER, S-9, AROCLOR 1254 (10 OR 30%), Method: PREINCUBATION) “inactive; negative”; (Test System: AMES SALMONELLA TYPHIMURIUM, Strain/Indicator: TA97, Metabolic Activation: NONE, Method: PREINCUBATION) “inactive; negative”; (Test System: AMES SALMONELLA TYPHIMURIUM, Strain/Indicator: TA97, Metabolic Activation: RAT, LIVER, S-9, AROCLOR 1254 (10 OR 30%), Method: PREINCUBATION) “inactive; negative”; (Test System: AMES SALMONELLA TYPHIMURIUM, Strain/Indicator: TA98, Metabolic Activation: HAMSTER, LIVER, S-9, AROCLOR 1254 (10 OR 30%), Method: PREINCUBATION) “inactive; negative”; (Test System: AMES SALMONELLA TYPHIMURIUM, Strain/Indicator: TA98, Metabolic Activation: NONE, Method: GAS EXPOSURE) “inactive; negative”; (Test System: AMES SALMONELLA TYPHIMURIUM, Strain/Indicator: TA98, Metabolic Activation: NONE, Method: PREINCUBATION) “inactive; negative”. The mutagenic call is “inactive; negative” (Test System: AMES SALMONELLA TYPHIMURIUM, Strain/Indicator: TA98, Metabolic Activation: RAT, LIVER, S-9, AROCLOR 1254 (10 OR 30%), Method: PREINCUBATION); “inactive; negative” (Test System: AMES SALMONELLA TYPHIMURIUM, Strain/Indicator: TA98, Metabolic Activation: RAT, LIVER, S-9, SODIUM PHENOBARBITAL AND 5,6-BENZOFLAVONE, Method: GAS EXPOSURE); “inactive; negative” (Test System: AMES SALMONELLA TYPHIMURIUM, Strain/Indicator: TA100, Metabolic Activation: HAMSTER, LIVER, S-9, AROCLOR 1254 (10 OR 30%), Method: PREINCUBATION); “inactive; negative” (Test System: AMES SALMONELLA TYPHIMURIUM, Strain/Indicator: TA100, Metabolic Activation: NONE, Method: GAS EXPOSURE); “inactive; negative” (Test System: AMES SALMONELLA TYPHIMURIUM, Strain/Indicator: TA100, Metabolic Activation: NONE, Method: PREINCUBATION); “inactive; negative” (Test System: AMES SALMONELLA TYPHIMURIUM, Strain/Indicator: TA100, Metabolic Activation: RAT, LIVER, S-9, AROCLOR 1254 (10 OR 30%), Method: PREINCUBATION). Further, the mutagenic call is, setting by setting: (Test System: AMES SALMONELLA TYPHIMURIUM, Strain/Indicator: TA100, Metabolic Activation: RAT, LIVER, S-9, SODIUM PHENOBARBITAL AND 5,6-BENZOFLAVONE, Method: GAS EXPOSURE) “inactive; negative”; (Test System: AMES SALMONELLA TYPHIMURIUM, Strain/Indicator: TA1535, Metabolic Activation: HAMSTER, LIVER, S-9, AROCLOR 1254 (10 OR 30%), Method: PREINCUBATION) “inactive; negative”; (Test System: AMES SALMONELLA TYPHIMURIUM, Strain/Indicator: TA1535, Metabolic Activation: NONE, Method: GAS EXPOSURE) “inactive; negative”; (Test System: AMES SALMONELLA TYPHIMURIUM, Strain/Indicator: TA1535, Metabolic Activation: NONE, Method: PREINCUBATION) “inactive; negative”; (Test System: AMES SALMONELLA TYPHIMURIUM, Strain/Indicator: TA1535, Metabolic Activation: RAT, LIVER, S-9, AROCLOR 1254 (10 OR 30%), Method: PREINCUBATION) “inactive; negative”; (Test System: AMES SALMONELLA TYPHIMURIUM, Strain/Indicator: TA1535, Metabolic Activation: RAT, LIVER, S-9, SODIUM PHENOBARBITAL AND 5,6-BENZOFLAVONE, Method: GAS EXPOSURE) “inactive; negative”. Besides, the mutagenic call is “inactive; negative” (Test System: AMES SALMONELLA TYPHIMURIUM, Strain/Indicator: TA1537, Metabolic Activation: NONE, Method: GAS EXPOSURE); “inactive; negative” (Test System: AMES SALMONELLA TYPHIMURIUM, Strain/Indicator: TA1537, Metabolic Activation: RAT, LIVER, S-9, SODIUM PHENOBARBITAL AND 5,6-BENZOFLAVONE, Method: GAS EXPOSURE); “inactive; negative” (Test System: E. COLI, Strain/Indicator: WP2UVRA, Metabolic Activation: NONE, Method: GAS EXPOSURE); “inactive; negative” (Test System: E. COLI, Strain/Indicator: WP2UVRA, Metabolic Activation: RAT, LIVER, S-9, PHENOBARBITAL AND BETA--NAPHTHOFLAVONE, Method: GAS EXPOSURE).
In the case of `CCC[C@@H]1C[C@@H](C(=O)N[C@@H]([C@H]2O[C@H](SC)[C@H](O)[C@@H](O)[C@H]2O)[C@@H](C)O)N(C)C1`, the mutagenic call is, setting by setting: (End Point: AMES SALMONELLA TYPHIMURIUM, Test System: TA98, Metabolic Activation: NONE, Method: STANDARD PLATE) “active; positive”; (End Point: AMES SALMONELLA TYPHIMURIUM, Test System: TA100, Metabolic Activation: NONE, Method: STANDARD PLATE) “active; positive”.
As for `Oc1ccc(/C=C/c2cc(O)cc(O)c2)cc1`, the mutagenic call runs as follows: (End Point: CHROMOSOMAL ABERRATIONS, Test System: CHINESE HAMSTER LUNG CELLS, Metabolic Activation: NONE) “active; positive (structural and ploidy changes)”; (Test System: Ames Salmonella typhimurium, Strain/Indicator: TA102, Metabolic Activation: None, Method: Preincubation) “inactive; negative”; (Test System: Ames Salmonella typhimurium, Strain/Indicator: TA102, Metabolic Activation: Rat, Liver, S-9, Aroclor 1254 in 0.154 M KCl, Method: Preincubation) “inactive; negative”.
For `CCN(CCCl)CCCNc1c2ccc(Cl)cc2nc2ccc(OC)nc12`, the mutagenic call by setting is: (Test System: AMES SALMONELLA TYPHIMURIUM, Strain/Indicator: TA98, Metabolic Activation: NONE, Method: STANDARD PLATE) “active; positive”; (Test System: AMES SALMONELLA TYPHIMURIUM, Strain/Indicator: TA100, Metabolic Activation: NONE, Method: STANDARD PLATE) “active; positive”; (Test System: AMES SALMONELLA TYPHIMURIUM, Strain/Indicator: TA1535, Metabolic Activation: NONE, Method: STANDARD PLATE) “inactive; negative”; (Test System: AMES SALMONELLA TYPHIMURIUM, Strain/Indicator: TA1536, Metabolic Activation: NONE, Method: STANDARD PLATE) “active; positive”; (Test System: AMES SALMONELLA TYPHIMURIUM, Strain/Indicator: TA1537, Metabolic Activation: NONE, Method: STANDARD PLATE) “active; positive”; (Test System: AMES SALMONELLA TYPHIMURIUM, Strain/Indicator: TA1538, Metabolic Activation: NONE, Method: STANDARD PLATE) “active; positive”.
